The results in this text go back to ChEMBL document CHEMBL1201862, “PubChem BioAssay data set” (2004).

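Values below derive from 48-hour exposures of cells grown in 96-well plates, with endpoints linearly interpolated between the two concentrations bracketing the appropriate inhibition level. The concentration for 50% growth inhibition is given as GI50.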 The source made the active and inactive calls. Rule as the data show it: active = GI50 up to about 1.1 µM and inactive = higher.

In general, GI50 refers to the concentration at which growth is held to half of that of the control.

Holding throughout (assay): DTP human tumour cell line panel, 48 h
The subject of experiment [1] is XF498.
Experiment [2] has as its system KM-20L2.
Experiment [3] has as its system SNB-78.
Experiment [4] deals with HOP-18.
Experiment [5] has as its system T47D.
Experiment [6] relates to BT-549.
Experiment [7] has as its system MDA-N.
For experiment [8], the system named is LXFL 529.
The subject of experiment [9] is RXF 631.

Regarding `N[C@@H](CSCSC[C@H](N)C(=O)O)C(=O)O`, the GI50 in experiment [1] is > 225 µM (inactive); in experiment [2], > 164 µM (inactive); in [3] it was 126 µM (inactive); in experiment [4], > 225 µM (inactive).
Consider `C[Si](C)(C)OC1(C#N)c2ccccc2CCCC12CCCC2` (stereo not drawn), for which the GI50 was 24.7 µM (inactive) in [5], > 100 µM (inactive) in experiment [6] and 46 µM (inactive) in experiment [7].
For `CC(=O)/N=C1/N(/C=C2\C(=O)Oc3ccccc3C2=O)C(=O)/C(=C/c2ccc(OC(C)=O)cc2)N1C`, the GI50 in [5] and in experiment [7] was > 100 µM (inactive) each time.
In the case of `Nc1cc(S(=O)(=O)O)cc2cc(S(=O)(=O)O)c(/N=N/c3ccc(-c4ccc(/N=N/c5c(S(=O)(=O)O)cc6cc(S(=O)(=O)O)cc(N)c6c5O)cc4)cc3)c(O)c12`, the GI50 in experiment [1], in experiment [2], in experiment [3] and in experiment [4] was > 100 µM (inactive) throughout.
`CCc1ccc(Nc2cc(=O)[nH]c(=S)n2C)cc1`: the GI50 in experiment [1], in experiment [2], in [3], in experiment [8] and in experiment [4] was > 100 µM (inactive) throughout.
In the case of `COc1ccc(N[S+]([O-])c2ccc(-c3ccccc3)cc2)cc1` (stereo not drawn), the GI50 in experiment [7] is 97.7 µM (inactive).
For the compound `COC(=O)C1(Cc2ccccc2)Cc2cc3c(cc2C1)CCC3`, the GI50 in experiment [5] is 18.2 µM (inactive); in experiment [6] it was 35 µM (inactive); in experiment [7] it was 16 µM (inactive).
For `CC(=O)OC/C=C\Cn1ncc(=O)[nH]c1=O`, the figures for the GI50 in [5] and in [7] were 22.1 µM (inactive) and 14.9 µM (inactive), respectively.
On to `N=c1c2c(=S)n(-c3ccccc3)c(=S)n(-c3ccccc3)c2nc(SCCCN2CCN(c3cccc(Cl)c3)CC2)n1-c1ccccc1`, for which, in experiment [6], the GI50 was > 100 µM (inactive).
Regarding `COc1ccc(/C(Cl)=C(\C=O)c2ccc(OC)cc2)cc1`, the GI50 in experiment [9] was 58.3 µM (inactive); in [2] it was > 100 µM (inactive); in [3] it was > 100 µM (inactive); in [8], > 100 µM (inactive); in [4], 63.8 µM (inactive).
As for `O=CCCn1[nH]c(=O)ccc1=O`, the GI50 in [2] and in experiment [3] was > 100 µM (inactive) each time.
With `CN1C2CCC1CC(C)(O)C2` (stereo not drawn), the GI50 in experiment [5], in [6] and in [7] was > 100 µM (inactive) in each case.
Consider `CC1(C)CC[C@]2(C)CC[C@]3(C)C(=CC[C@@H]4[C@@]5(C)CCC(=O)C(C)(C)[C@@H]5[C@H](O)C[C@]43C)[C@@H]2C1`, for which the values for the GI50 in experiment [5], in [6] and in experiment [7] were 17.3 µM (inactive), 20.5 µM (inactive) and 15.6 µM (inactive), respectively.
For `COc1cccc(NC(=O)CC(=O)n2nc(-c3ccccc3)c(/N=N/c3ccc(Cl)cc3)c2-c2ccccc2)c1` the same measures were 13.9 µM (inactive), 11.8 µM (inactive) and 38.8 µM (inactive).
In the case of `COC(=O)[C@@H](NC(=O)[C@H](N)Cc1ccc(N(CCCl)CCCl)cc1)C(C)C`, the values for the GI50 in experiment [5], in experiment [6] and in [7] were 2.86 µM (inactive), 23.4 µM (inactive) and 23.3 µM (inactive), respectively.
For `COc1ccc(/C=C2\CC3C4CC=C5C[C@@H](O)CC[C@]5(C)C4CC[C@]3(C)\C2=N\O)cc1OC` (stereo partly drawn) the same measures were 3.35 µM (inactive), 15.1 µM (inactive) and 14.1 µM (inactive).
Take `CCOCCOc1ccc(OCCOCC)cc1`: the GI50 in experiment [1] is 16.4 µM (inactive); in experiment [2], 26.2 µM (inactive); in [3], > 42.7 µM (inactive); in experiment [4], 10.7 µM (inactive).
For the compound `O=[N+]([O-])c1ccc(C2=Nc3ccccc3SC(c3ccccc3)C2)cc1` (stereo not drawn), the GI50 in experiment [1] was 17.5 µM (inactive); in experiment [2], 17.6 µM (inactive); in experiment [3], 23.6 µM (inactive); in experiment [8], 17.8 µM (inactive).
With `CSCC(CO)NC(=O)/C=C/c1c(C)[nH]c(=O)[nH]c1=O` (stereo not drawn), the GI50 in experiment [1] is 311 µM (inactive); in experiment [2] it was 415 µM (inactive); in [3], > 853 µM (inactive); in experiment [4], > 875 µM (inactive).
`O=C(c1ccco1)C1CC(c2c(O)ccc3ccccc23)=NN1` (stereo not drawn): the results for the GI50 in experiment [5], in experiment [6] and in [7] were 3.33 µM (inactive), 14.9 µM (inactive) and 12.6 µM (inactive), respectively.
Turning to `CNc1ccccc1-c1nc2ccccc2c(=O)o1`, the GI50 in [9] is > 100 µM (inactive); in experiment [1] it was 31 µM (inactive); in experiment [2], > 100 µM (inactive); in experiment [3], 55.3 µM (inactive); in [8], > 100 µM (inactive); in experiment [4], > 100 µM (inactive).
Consider `CC(C)=CC(=O)OC1C2C(C)=CC(O)C(O)C2(C)C2C3(O)OCC24C(CC(=O)OC14)C(C)C3O` (stereo not drawn), for which the GI50 in experiment [1] was 0.122 µM (active); in experiment [2], 0.354 µM (active); in experiment [3], 0.272 µM (active); in experiment [4] it was 1.11 µM (active).
With `CC(C)=C1C2CC3(C)CCC2(C)CCC13.CC1=CCC2C3(C)CCC2(C(C)C)C1C3` (stereo not drawn), the GI50 is 36.7 µM (inactive) in experiment [5], 19.8 µM (inactive) in experiment [6] and 25.5 µM (inactive) in experiment [7].
For `CN(N)c1nc(N)c(C#N)c(C#N)c1C#N`, in that order: > 10 µM (inactive), > 10 µM (inactive) and > 10 µM (inactive).
With `COC(=O)c1ccc(/C=C2\N=C(C)OC2=O)cc1`, the GI50 in experiment [9], in experiment [1], in [2], in experiment [8] and in experiment [4] was > 100 µM (inactive) each time.
For `CN(C)C(=O)C1CCC(=C2C(=O)OC(C)(C)OC2=O)N1C` (stereo not drawn), the GI50 in experiment [1], in [2], in [3], in [8] and in experiment [4] was > 100 µM (inactive) in each case.
